# From the supplement of paper PMC6965134
# Experiment: TIMS collisional cross section (CCS, N2) of the lipid ion; higher = larger ion cross section
# Conditions: sample type: HeLa; ionization mode: positive; one isomer drawn
row,Compound,TIMS collisional cross section [Å²]
1,CC/C=C\C/C=C\C/C=C\C/C=C\C/C=C\CCCC(=O)O[C@H](COC(=O)CCC/C=C\C/C=C\C/C=C\C/C=C\CCCCC)COP(=O)([O-])OCC[N+](C)(C)C [PC 20:4_20:5] (ion (formula + adduct): [C48H78NO8P+H] 1+),290.3
2,CC/C=C\C/C=C\C/C=C\C/C=C\C/C=C\C/C=C\CCC(=O)O[C@H](COC(=O)CCC/C=C\C/C=C\C/C=C\C/C=C\CCCCC)COP(=O)([O-])OCC[N+](C)(C)C [PC 20:4_22:6] (ion (formula + adduct): [C50H80NO8P+H] 1+),295.5
3,CC/C=C\C/C=C\C/C=C\C/C=C\C/C=C\C/C=C\CCC(=O)OC[C@H](COP(=O)([O-])OCC[N+](C)(C)C)OC(=O)CC/C=C\C/C=C\C/C=C\C/C=C\C/C=C\C/C=C\CC [PC 22:6_22:6] (ion (formula + adduct): [C52H80NO8P+H] 1+),298.6
4,CCCCC/C=C/C/C=C/C/C=C/C/C=C/CCCC(=O)O[C@H](COCCCCCCCCCCCCCCCC)COP(=O)([O-])OCC[N+](C)(C)C [PC O- 16:0@_20:4] (ion (formula + adduct): [C44H82NO7P+H] 1+),290.4
5,CC/C=C\C/C=C\C/C=C\C/C=C\C/C=C\CCCC(=O)O[C@H](COCCCCCCCCCCCCCCCC)COP(=O)([O-])OCC[N+](C)(C)C [PC O- 16:0@_20:5] (ion (formula + adduct): [C44H80NO7P+H] 1+),287.7
6,CC/C=C\C/C=C\C/C=C\C/C=C\C/C=C\CCCCCC(=O)O[C@H](COCCCCCCCCCCCCCCCC)COP(=O)([O-])OCC[N+](C)(C)C [PC O- 16:0@_22:5] (ion (formula + adduct): [C46H84NO7P+H] 1+),294.4

# The remaining lines, values ahead:
row,TIMS collisional cross section [Å²],Compound
1,280.8,CCCCCCCCCCCCCCCCOC[C@H](COP(=O)([O-])OCC[N+](C)(C)C)OC(=O)CCCCCCCCCCCCC [PC O- 16:0@_14:0] (ion (formula + adduct): [C38H78NO7P+H] 1+)
2,287.7,CCCCCCC/C=C\CCCCCCCC(=O)O[C@H](COCCCCCCCCCCCCCCCC)COP(=O)([O-])OCC[N+](C)(C)C [PC O- 16:0@_17:1] (ion (formula + adduct): [C41H82NO7P+H] 1+)
3,290.7,CCCCCCCC/C=C\CCCCCCCC(=O)O[C@H](COCCCCCCCCCCCCCCCC)COP(=O)([O-])OCC[N+](C)(C)C [PC O- 16:0@_18:1] (ion (formula + adduct): [C42H84NO7P+H] 1+)
4,293.3,CCCCCCCCCCCCCCCCCCOC[C@H](COP(=O)([O-])OCC[N+](C)(C)C)OC(=O)CCCCCCCCCCCCCCC [PC O- 18:0@_16:0] (ion (formula + adduct): [C42H86NO7P+H] 1+)

# Same assay, conditions: sample type: plasma; ionization mode: positive; one isomer drawn
row,TIMS collisional cross section [Å²],Compound
1,287.3,CCCCC/C=C\C/C=C\CCCCCCCC(=O)O[C@H](COCCCCCCCCCCCCCCCC)COP(=O)([O-])OCC[N+](C)(C)C [PC O- 16:0@_18:2] (ion (formula + adduct): [C42H82NO7P+H] 1+)
2,296.3,CCCCC/C=C\C/C=C\C/C=C\C/C=C\CCCCCC(=O)O[C@H](COCCCCCCCCCCCCCCCC)COP(=O)([O-])OCC[N+](C)(C)C [PC O- 16:0@_22:4] (ion (formula + adduct): [C46H86NO7P+H] 1+)
3,287.2,CC/C=C\C/C=C\C/C=C\C/C=C\CCCCCCC(=O)O[C@H](COCCCCCCCC/C=C\CCCCCC)COP(=O)([O-])OCC[N+](C)(C)C [PC O- 16:1@_20:4] (ion (formula + adduct): [C44H80NO7P+H] 1+)
4,294.7,CCCCC/C=C\C/C=C\CCCCCCCC(=O)O[C@H](COCCCCCCCCCCCCCCCCCC)COP(=O)([O-])OCC[N+](C)(C)C [PC O- 18:0@_18:2] (ion (formula + adduct): [C44H86NO7P+H] 1+)
